Experimental findings from publication doi:10.1101/155374v1, “A trapped double bond-photoisomerization intermediate in a bacterial photoreceptor” (biorxiv, 2017) are described below.

The experiment concerns the target T1, Slr1393g3 (GAF3 domain of cyanobacteriochrome Slr1393) (Synechocystis sp. PCC 6803, UniProt P73184).
T1 construct: isolated GAF3 domain, residues 441-596 modelled (155 amino acids stated), N-terminal His tag (tag residues seen at both ends), expressed in E. coli; one monomer per ASU, dimer in solution for Pr state
T1 sequence (P73184 441-596): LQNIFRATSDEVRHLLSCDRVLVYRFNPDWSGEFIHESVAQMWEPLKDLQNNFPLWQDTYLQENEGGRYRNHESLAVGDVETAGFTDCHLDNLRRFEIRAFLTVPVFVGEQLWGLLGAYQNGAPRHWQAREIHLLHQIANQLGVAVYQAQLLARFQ
The experiment in a line: X-ray crystallography. It is filed as binding. Particulars: covalent; thioether bond of Cys528 to C3(1) of PCB; 5DFY in vitro assembled Pr 1.6 A; 5DFX in vivo Pr 1.8 A; 5M82 Pg (15-E) 1.86 A; 5M85 X-ray induced intermediate 2.1 A.

Turning to `C/C=C1/C(=C/c2[nH]c(/C=C3N=C(/C=C4\NC(=O)C(CC)=C4C)C(C)=C\3CCC(=O)O)c(CCC(=O)O)c2C)NC(=O)[C@@H]1C` [PCB, phycocyanobilin], the X-ray crystallography result is “The PCB chromophore is covalently bound to Cys528 on helix a4”.
